# Assay results taken from patent US12171840B2, “Anti-mesothelin antibody and antibody drug conjugate thereof” (Remegen, Ltd., priority 2018, dated 2024).
# Values joined by “and” are separate entries in the source; they are usually repeats but may differ in a detail not shown here. Identical values can stand only once. Like-named read-outs stand apart in the source and are kept apart here. Starred links: 1 amine or outer side, 2 acyl side, 3 side chain; linkers in the order of their positions; H or OH if unused. Non-standard residues stand in square brackets, D forms with d. Residues, ends and D or L forms follow the SMILES beside them. *: point of attachment. Dolaproine = CO[C@@H]([C@@H]1CCCN1)[C@@H](C)C(=O)O; Hexanoyl(6-maleimido) = O=C1C=CC(=O)N1CCCCCC(=O)*; Dil = CC[C@H](C)[C@H](NC)[C@@H](CC(=O)O)OC; PABC = O=C(OCc1ccc(N[*:1])cc1)[*:2]; Doe = c1ccc(C[C@H](N*)c2nccs2)cc1; X1 = C[C@@H](N*)[C@@H](O)c1ccccc1; Cit = NC(=O)NCCC[C@H](N)C(=O)O; NMeV = CN[C@H](C(=O)O)C(C)C
# Assays:
# Oval-Citar-3-MSLN cells = assay: Cytotoxic activity (CCK-8) in Oval-Citar-3 cells with high expression of MSLN; conditions: for IC50: read-out: cytotoxicity IC50
# Description: Oval-Citar-3-MSLN cells in good growth state were added to a 96-well cell culture plates (5×10^4 cells/mL. 100 μL/well), and incubated overnight at 37° C. in a CO2 incubator. […] After dilution, they were added to 96 plates (100 μL/well), and a blank group (equal volume of medium without drug) and three control groups were set, and incubation was carried out in a CO2 constant temperature incubator at 37° C. for 72 hours. A medium (without FBS) that contained 10 μL of CCK-8 at a dose of 100 μL/well was added, incubated at 37° C. for 2 to 4 hours in a CO2 incubator, and the OD values at 450 nm were read with a microplate reader. The inhibition rate was calculated by the following formula: IR %=(ODblank−ODdrug)×100/ODblank.
# [1] = tested on: Oval-Citar-3 human ovarian cancer bearing mouse model with high expression of MSLN; assay: Anti-tumor experiment of RC88-Py-MAA-Val-Cit-PAB-MMAE, dose groups and controls, in Oval-Citar-3-MSLN tumor-bearing nude mice (Example 6); assay type: in vivo
# Description: Oval-Citar-3-MSLN cells (2×10^6) in normal growth state were subcutaneously inoculated in nude mice (Changzhou Cavans Laboratory Animal Co., Ltd., certificate number: 201611240, license number: SCXK (Su) 2011-0003), and the animals were randomized after the tumor volume grew to approximately 100-400 mm^3. […] 3 times in total (PTX was administered twice a week, 6 times in total), and the negative control group was administrated with the equal amount of physiological saline at the same time.
# [2] = OVal-CitAR3-MSLN, 72 hours, CCK-8, N = 3
# [3] = 10 mg/kg twice a week, 6 times in total, after 21 days of administration
Compound,"Inhibition rate, % (maximum inhibition rate) (Oval-Citar-3-MSLN cells; [2]) [%]",cytotoxicity IC50 (Oval-Citar-3-MSLN cells; [2]) [ng/mL],IC50 (Oval-Citar-3-MSLN cells; [2]) [pM],"IC50 (Oval-Citar-3-MSLN cells; Homo sapiens, 72 h)","T/C [1, 3] [%]","tumors completely eliminated (CR) [1, 3]","tumor volume and RTV versus the control (saline) group ([1]; 10 mg/kg twice a week, 6 times in total, after 21 days, P<0.05)","difference from the control (saline) group ([1]; 0.06 mg/kg, once a week, 3 times in total, P>0.05)"
"CC[C@H](C)[C@@H]([C@@H](CC(=O)N1CCC[C@H]1[C@H](OC)[C@@H](C)C(=O)N[C@@H](Cc1ccccc1)c1nccs1)OC)N(C)C(=O)[C@@H](NC(=O)[C@@H](NC)C(C)C)C(C)C [MMAD, monomethyl auristatin D] (H-[NMeV]V[Dil][Dolaproine]-Doe)",98.1 ± 2.4,0.1169 ± 0.0074,152 ± 10,,,,,
"CC(=O)O[C@H]1C(=O)[C@@]2(C)[C@H]([C@H](OC(=O)c3ccccc3)[C@]3(O)C[C@H](OC(=O)[C@H](O)[C@@H](NC(=O)c4ccccc4)c4ccccc4)C(C)=C1C3(C)C)[C@]1(OC(C)=O)CO[C@@H]1C[C@@H]2O [PTX, Paclitaxel]",92.8 ± 1.5,,,0.00109 µg/mL and 1.27 nM,< 40,tumors were completely eliminated (CR) in two tumor-bearing mice,statistically different,
"CC[C@H](C)[C@@H]([C@@H](CC(=O)N1CCC[C@H]1[C@H](OC)[C@@H](C)C(=O)N[C@H](C)[C@@H](O)c1ccccc1)OC)N(C)C(=O)[C@@H](NC(=O)[C@@H](NC)C(C)C)C(C)C [MMAE, monomethyl auristatin E] (H-[NMeV]V[Dil][Dolaproine]-X1)",96.9 ± 0.7,0.3199 ± 0.0284,446 ± 39.5,,,,,no significant difference
CC[C@H](C)[C@@H]([C@@H](CC(=O)N1CCC[C@H]1[C@H](OC)[C@@H](C)C(=O)N[C@H](C)[C@@H](O)c1ccccc1)OC)N(C)C(=O)[C@@H](NC(=O)[C@H](C(C)C)N(C)C(=O)OCc1ccc(NC(=O)[C@H](CCCNC(N)=O)NC(=O)[C@@H](NC(=O)CCCCCN2C(=O)C=CC2=O)C(C)C)cc1)C(C)C [Mc-Val-Cit-PAB-MMAE] ({Hexanoyl(6-maleimido)}-V[Cit][PABC][NMeV]V[Dil][Dolaproine]-X1),94.5 ± 0.8,~663.4,,,,,,
